Target: T1, α-Lac (α-lactalbumin) (Bos taurus, UniProt P00711)
T1 construct: gene LALBA; native mature protein from bovine milk, type III, calcium depleted (apo form, EDTA buffer); signal peptide absent
T1 sequence (P00711 20-142): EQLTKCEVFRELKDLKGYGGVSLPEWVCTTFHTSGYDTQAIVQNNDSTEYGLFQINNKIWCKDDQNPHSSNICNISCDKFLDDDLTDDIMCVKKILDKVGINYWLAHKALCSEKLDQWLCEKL
Experiment: isothermal titration calorimetry
Assay type: binding
Settings: 20 mM Tris pH 7, 25 °C, 3.5 mM EDTA (apo form), unreliable (authors urge care: no clear pre- or post-transition, heat does not level off)
Text: isothermal titration calorimetry on α-Lac (α-lactalbumin)

Row | SMILES | K (M^-1) (up to 3% ethanol, n = 1.8) | K (M^-1) (n = 0.9)
1 | CC(=O)O[C@H]1C(=O)[C@@]2(C)[C@H]([C@H](OC(=O)c3ccccc3)[C@]3(O)C[C@H](OC(=O)[C@H](O)[C@@H](NC(=O)c4ccccc4)c4ccccc4)C(C)=C1C3(C)C)[C@]1(OC(C)=O)CO[C@@H]1C[C@@H]2O [PTX, paclitaxel] | (14 ± 4.82) × 10^3 M^-1 | 
2 | COc1cccc2c1C(=O)c1c(O)c3c(c(O)c1C2=O)C[C@@](O)(C(=O)CO)C[C@@H]3O[C@H]1C[C@H](N)[C@H](O)[C@H](C)O1 [DOX, doxorubicin] |  | (6.7 ± 1.61) × 10^3 M^-1
